{"source": "patent US20220071925A1", "about": "“MEDICINAL COMPOSITION FOR PREVENTING OR TREATING BONE DISEASES” (GEXVAL INC., priority 2019, published 2022)", "key": {"[1]": {"test_system": "R264.7 cells", "assay": "Combined effect of compounds on LPS-stimulated mouse macrophage-derived cells, gene expression by RNA sequencing (Test Example 2)", "assay_type": "cell-based", "details": "LPS 100 ng/mL 24 h, free fatty acid (stearic acid) 10 μM, Fasiglifam 10 μM, alone or in combination", "procedure": "The combined effect of the compounds on the change when macrophage cells were stimulated by lipopolysaccharide (LPS) derived from bacteria was examined by integrated gene expression analysis using RNA next-generation sequencing. […].7 cells purchased from KAC Co., Ltd. were used in the test. The cells were suspended in DMEM with 10% serum, seeded in a 24-well plate at a concentration of 1.6×10^5 cells/well, and cultured at 37° C. under a 5% CO2 condition. 30 minutes prior to addition of LPS, a free fatty acid at 10 μM and Fasiglifam at 10 μM were added alone or in combination. Stearic acid was used as the free fatty acid. After culturing for 30 minutes after addition of the compound, LPS was added to each well at a concentration of 100 ng/mL. PBS of the same amount as LPS was added to a non-stimulated control group. After culturing for 24 hours with the addition of LPS, the medium was removed, and total RNA was extracted using RNeasy (QIAGEN). mRNA was recovered from the total RNA to prepare a library, and RNA sequencing (Illumina Hiseq) was performed. Samples from the following five groups were sequenced, and the expression level of each gene was estimated from the obtained read count data. […] Further, these expression-fluctuated genes were subjected to a pathway analysis to examine their association with the disease."}, "[2]": {"target": "GPR40 (Homo sapiens, UniProt O14842)", "sequence (O14842 whole entry, species assumed)": "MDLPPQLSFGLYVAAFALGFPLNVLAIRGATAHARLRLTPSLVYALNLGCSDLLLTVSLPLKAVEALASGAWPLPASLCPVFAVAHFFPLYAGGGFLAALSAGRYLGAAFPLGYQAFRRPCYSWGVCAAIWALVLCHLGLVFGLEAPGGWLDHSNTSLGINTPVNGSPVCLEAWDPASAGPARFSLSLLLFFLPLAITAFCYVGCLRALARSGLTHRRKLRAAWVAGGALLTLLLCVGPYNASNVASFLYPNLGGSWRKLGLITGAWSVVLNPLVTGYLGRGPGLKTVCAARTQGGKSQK", "details": "cited from earlier work"}, "[3]": {"test_system": "osteoclasts", "details": "caused by interaction of osteoclasts (RANK) with osteoblasts (RANKL); cited from earlier work"}, "[4]": {"test_system": "osteoclasts", "details": "action of GW9508 on GPR40; cited from earlier work"}, "[5]": {"details": "in vivo; cited from earlier work"}}}
{"smiles": "Cc1cc(OCCCS(C)(=O)=O)cc(C)c1-c1cccc(COc2ccc3c(c2)OC[C@H]3CC(=O)O)c1", "note": "[Fasiglifam, [(3S)-6-({2′,6′-dimethyl-4′-[3-(methylsulfonyl)propoxy]biphenyl-3-yl}methoxy)-2,3-dihydro-1-benzofuran-3-yl]acetic acid]", "values": [{"measurement": "AAAS expression level", "setting": "[1]", "value": 0}, {"measurement": "BCL2L1 expression level", "setting": "[1]", "value": 0}, {"measurement": "C3AR1 expression level", "setting": "[1]", "value": 0}, {"measurement": "CCL2 expression level", "setting": "[1]", "value": 0}, {"measurement": "CCL3 expression level", "setting": "[1]", "value": 0}, {"measurement": "CCL4 expression level", "setting": "[1]", "value": 0}, {"measurement": "CD36 expression level", "setting": "[1]", "value": 0}, {"measurement": "CSF1R expression level", "setting": "[1]", "value": 0}, {"measurement": "CSF3 expression level", "setting": "[1]", "value": 0}, {"measurement": "DUSP5 expression level", "setting": "[1]", "value": 0}, {"measurement": "EIF4B expression level", "setting": "[1]", "value": 0}, {"measurement": "EIF4G2 expression level", "setting": "[1]", "value": 0}, {"measurement": "GBP7 expression level", "setting": "[1]", "value": 0}, {"measurement": "GRIN1 expression level", "setting": "[1]", "value": 0}, {"measurement": "IL7R expression level", "setting": "[1]", "value": 0}, {"measurement": "IP6K2 expression level", "setting": "[1]", "value": 0}, {"measurement": "LYN expression level", "setting": "[1]", "value": 0}, {"measurement": "NF1 expression level", "setting": "[1]", "value": 0}, {"measurement": "NOS2 expression level", "setting": "[1]", "value": 0}, {"measurement": "PIK3CD expression level", "setting": "[1]", "value": 0}, {"measurement": "PIM1 expression level", "setting": "[1]", "value": 0}, {"measurement": "PIP5K1C expression level", "setting": "[1]", "value": 0}, {"measurement": "PLAUR expression level", "setting": "[1]", "value": 0}, {"measurement": "PLEKHO2 expression level", "setting": "[1]", "value": 0}, {"measurement": "PPP2CA expression level", "setting": "[1]", "value": 0}, {"measurement": "PSMA6 expression level", "setting": "[1]", "value": 0}, {"measurement": "PSMA7 expression level", "setting": "[1]", "value": 0}, {"measurement": "PSMC2 expression level", "setting": "[1]", "value": 0}, {"measurement": "PSMD13 expression level", "setting": "[1]", "value": 0}, {"measurement": "PYGB expression level", "setting": "[1]", "value": 0}, {"measurement": "RASGRP3 expression level", "setting": "[1]", "value": 0}, {"measurement": "SDCBP expression level", "setting": "[1]", "value": 0}, {"measurement": "SMPD1 expression level", "setting": "[1]", "value": 0}, {"measurement": "SUMO1 expression level", "setting": "[1]", "value": 0}, {"measurement": "TNF expression level", "setting": "[1]", "value": 0}, {"measurement": "TNFRSF1B expression level", "setting": "[1]", "value": 0}, {"measurement": "TNFSF8 expression level", "setting": "[1]", "value": 0}, {"measurement": "TNRC6B expression level", "setting": "[1]", "value": 0}, {"measurement": "agonist selectivity GPR40 versus GPR120", "setting": "[2]", "value": "selective agonist for GPR40"}]}
{"smiles": "CCCCCCCCCCCCCCCCCC(=O)O", "note": "[Fatty acid, Stearic acid]", "values": [{"measurement": "AAAS expression level", "setting": "[1]", "value": 0}, {"measurement": "BCL2L1 expression level", "setting": "[1]", "value": 0}, {"measurement": "C3AR1 expression level", "setting": "[1]", "value": 0}, {"measurement": "CCL2 expression level", "setting": "[1]", "value": 0}, {"measurement": "CCL3 expression level", "setting": "[1]", "value": 0}, {"measurement": "CCL4 expression level", "setting": "[1]", "value": 0}, {"measurement": "CD36 expression level", "setting": "[1]", "value": 0}, {"measurement": "CSF1R expression level", "setting": "[1]", "value": 0}, {"measurement": "CSF3 expression level", "setting": "[1]", "value": 0}, {"measurement": "DUSP5 expression level", "setting": "[1]", "value": 0}, {"measurement": "EIF4B expression level", "setting": "[1]", "value": 0}, {"measurement": "EIF4G2 expression level", "setting": "[1]", "value": 0}, {"measurement": "GBP7 expression level", "setting": "[1]", "value": 0}, {"measurement": "GRIN1 expression level", "setting": "[1]", "value": 0}, {"measurement": "IL7R expression level", "setting": "[1]", "value": 0}, {"measurement": "IP6K2 expression level", "setting": "[1]", "value": 0}, {"measurement": "LYN expression level", "setting": "[1]", "value": 0}, {"measurement": "NF1 expression level", "setting": "[1]", "value": 0}, {"measurement": "NOS2 expression level", "setting": "[1]", "value": 0}, {"measurement": "PIK3CD expression level", "setting": "[1]", "value": 0}, {"measurement": "PIM1 expression level", "setting": "[1]", "value": 0}, {"measurement": "PIP5K1C expression level", "setting": "[1]", "value": 0}, {"measurement": "PLAUR expression level", "setting": "[1]", "value": 0}, {"measurement": "PLEKHO2 expression level", "setting": "[1]", "value": 0}, {"measurement": "PPP2CA expression level", "setting": "[1]", "value": 0}, {"measurement": "PSMA6 expression level", "setting": "[1]", "value": 0}, {"measurement": "PSMA7 expression level", "setting": "[1]", "value": 0}, {"measurement": "PSMC2 expression level", "setting": "[1]", "value": 0}, {"measurement": "PSMD13 expression level", "setting": "[1]", "value": 0}, {"measurement": "PYGB expression level", "setting": "[1]", "value": 0}, {"measurement": "RASGRP3 expression level", "setting": "[1]", "value": 0}, {"measurement": "SDCBP expression level", "setting": "[1]", "value": 0}, {"measurement": "SMPD1 expression level", "setting": "[1]", "value": 0}, {"measurement": "SUMO1 expression level", "setting": "[1]", "value": 0}, {"measurement": "TNF expression level", "setting": "[1]", "value": 0}, {"measurement": "TNFRSF1B expression level", "setting": "[1]", "value": 0}, {"measurement": "TNFSF8 expression level", "setting": "[1]", "value": 0}, {"measurement": "TNRC6B expression level", "setting": "[1]", "value": 0}]}
{"smiles": "O=C(O)CCc1ccc(NCc2cccc(Oc3ccccc3)c2)cc1", "note": "[GW9508]", "values": [{"measurement": "formation of osteoclasts (differentiation and maturation into osteoclasts)", "setting": "[3]", "value": "suppressing the formation of osteoclasts"}, {"measurement": "agonist selectivity GPR40 versus GPR120", "setting": "[2]", "value": "dual agonist for GPR40 and GPR120"}, {"measurement": "differentiation into osteoclasts", "setting": "[4]", "value": "the differentiation into osteoclasts is suppressed"}, {"measurement": "bone loss due to ovariectomy", "setting": "[5]", "value": "bone loss due to ovariectomy can be prevented"}]}
